Calls of active or inactive are those of the source.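 Rule for the calls: active = mean EC50 below 10 µM; inactive = the rest.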
These compounds were tested against Type-1 angiotensin II receptor (Homo sapiens) (UniProt P30556) (assay: AGTR1 activation selectivity check – cell-based, CHO-K1 PathHunter, luminescence, set 3, selectivity assay for APJ agonist project, SAR follow-up (AID 492982)). Settings: CHO-K1 AGTR1 PathHunter beta-arrestin, 90 min.
Chain of Type-1 angiotensin II receptor (Homo sapiens) (P30556 whole entry, looked up): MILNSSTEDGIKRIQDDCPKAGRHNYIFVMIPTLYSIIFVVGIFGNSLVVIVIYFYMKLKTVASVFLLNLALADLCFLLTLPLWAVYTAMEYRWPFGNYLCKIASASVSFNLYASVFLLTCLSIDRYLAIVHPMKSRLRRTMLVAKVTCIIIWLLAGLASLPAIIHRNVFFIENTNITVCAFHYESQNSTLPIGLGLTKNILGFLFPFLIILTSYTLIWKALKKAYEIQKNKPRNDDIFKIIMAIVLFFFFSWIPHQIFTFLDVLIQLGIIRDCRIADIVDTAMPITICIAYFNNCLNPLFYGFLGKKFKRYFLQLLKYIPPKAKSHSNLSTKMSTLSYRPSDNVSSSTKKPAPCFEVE

EC50, inactive:
CC1=CC(=O)C(C(C)C)=C/C1=N/OS(=O)(=O)c1ccc(C#N)cc1 > 79 µM, CC1=CC(=O)C(C(C)C)=C/C1=N/OS(=O)(=O)c1ccc(F)cc1 > 79 µM, CC1=CC(=O)C(C(C)C)=C/C1=N/OS(=O)(=O)c1ccc(C(C)C)cc1 > 79 µM

From PubChem BioAssay AID492982 (Sanford-Burnham Center for Chemical Genomics, 2010)
